Assay results reported in ChEMBL document CHEMBL5365514, “Redefining Cancer Therapy: Toward BCL-XL/BCL-2 Dual Inhibitors with Diminished Platelet Toxicity” (ACS Med Chem Lett, 2023).

Key:
MOLT-4 = experiment: Antiproliferative activity against human MOLT-4 cells assessed as inhibition of cell growth measured after 48 hrs by MTS assay; assay type: functional, cell-based; conditions: MOLT-4, 48 h
RS4-11 = experiment: Antiproliferative activity against human RS4-11 cells assessed as inhibition of cell growth measured after 48 hrs by MTS assay; assay type: functional, cell-based; conditions: RS4-11, 48 h

Compound | IC50 (MOLT-4) | IC50 (RS4-11)
Cc1ncsc1-c1ccc([C@H](C)NC(=O)[C@@H]2C[C@@H](O)CN2C(=O)[C@@H](NC(=O)CN(C)CCC(=O)N2CCC(C3CCN(C[C@]4(C)CCC(c5ccc(Cl)cc5)=C(CN5CCN(c6ccc(C(=O)NS(=O)(=O)c7ccc(N[C@H](CCN8CCCOCC8)CSc8ccccc8)c(S(=O)(=O)C(F)(F)F)c7)cc6)CC5)C4)CC3)CC2)C(C)(C)C)cc1 | < 0.02 µM | < 0.02 µM
Cc1ncsc1-c1ccc([C@H](C)NC(=O)[C@@H]2C[C@@H](O)CN2C(=O)[C@@H](NC(=O)CN(C)CC(=O)N2CCC(C3CCN(C[C@]4(C)CCC(c5ccc(Cl)cc5)=C(CN5CCN(c6ccc(C(=O)NS(=O)(=O)c7ccc(N[C@H](CCN8CCCOCC8)CSc8ccccc8)c(S(=O)(=O)C(F)(F)F)c7)cc6)CC5)C4)CC3)CC2)C(C)(C)C)cc1 | < 0.02 µM | < 0.02 µM
Cc1ncsc1-c1ccc([C@H](C)NC(=O)[C@@H]2C[C@@H](O)CN2C(=O)[C@@H](NC(=O)CCCCC(=O)N2CCN(C3CCN(C[C@]4(C)CCC(c5ccc(Cl)cc5)=C(CN5CCN(c6ccc(C(=O)NS(=O)(=O)c7ccc(N[C@H](CCN8CCCOCC8)CSc8ccccc8)c(S(=O)(=O)C(F)(F)F)c7)cc6)CC5)C4)CC3)CC2)C(C)(C)C)cc1 | < 0.02 µM | < 0.02 µM
